Measured values from US10988477B2 (Merck Patent GmbH, priority 2018, dated 2021).
pIC50, pKi: −log10 of the molar value.

Tests used:
GCN2 kinase = GCN2 kinase (Homo sapiens, UniProt Q9P2K8); assay: GCN2 enzyme inhibition assay (Transcreener ADP2 fluorescence polarization); format: biochemical; details: 280 μM ATP
Method in brief: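 Human GCN2 (4 nM) preincubated 10 min with compound (0–8 μM) and 200 μM (RS)7 peptide in Tris-HCl pH 7.5, NaCl, MgCl2, DTT. Reaction started with 280 μM ATP, run 1 h at 25 °C. ADP detected by Transcreener fluorescence polarization. IC50 and Ki(app) fitted by tight-binding algorithm.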

[1] = target: intracellular GCN2 (phosphorylation of the GCN2 substrate eIF2α) (Homo sapiens, UniProt Q9P2K8); assay: GCN2 cellular inhibition assay (AlphaScreen SureFire P-eIF2α Ser51, borrelidin-treated U2OS cells); format: cell-based; details: biomarker assay, phosphorylated eIF2α Ser51 in borrelidin-treated U2OS cells
Chain of intracellular GCN2 (phosphorylation of the GCN2 substrate eIF2α) (Q9P2K8 whole entry): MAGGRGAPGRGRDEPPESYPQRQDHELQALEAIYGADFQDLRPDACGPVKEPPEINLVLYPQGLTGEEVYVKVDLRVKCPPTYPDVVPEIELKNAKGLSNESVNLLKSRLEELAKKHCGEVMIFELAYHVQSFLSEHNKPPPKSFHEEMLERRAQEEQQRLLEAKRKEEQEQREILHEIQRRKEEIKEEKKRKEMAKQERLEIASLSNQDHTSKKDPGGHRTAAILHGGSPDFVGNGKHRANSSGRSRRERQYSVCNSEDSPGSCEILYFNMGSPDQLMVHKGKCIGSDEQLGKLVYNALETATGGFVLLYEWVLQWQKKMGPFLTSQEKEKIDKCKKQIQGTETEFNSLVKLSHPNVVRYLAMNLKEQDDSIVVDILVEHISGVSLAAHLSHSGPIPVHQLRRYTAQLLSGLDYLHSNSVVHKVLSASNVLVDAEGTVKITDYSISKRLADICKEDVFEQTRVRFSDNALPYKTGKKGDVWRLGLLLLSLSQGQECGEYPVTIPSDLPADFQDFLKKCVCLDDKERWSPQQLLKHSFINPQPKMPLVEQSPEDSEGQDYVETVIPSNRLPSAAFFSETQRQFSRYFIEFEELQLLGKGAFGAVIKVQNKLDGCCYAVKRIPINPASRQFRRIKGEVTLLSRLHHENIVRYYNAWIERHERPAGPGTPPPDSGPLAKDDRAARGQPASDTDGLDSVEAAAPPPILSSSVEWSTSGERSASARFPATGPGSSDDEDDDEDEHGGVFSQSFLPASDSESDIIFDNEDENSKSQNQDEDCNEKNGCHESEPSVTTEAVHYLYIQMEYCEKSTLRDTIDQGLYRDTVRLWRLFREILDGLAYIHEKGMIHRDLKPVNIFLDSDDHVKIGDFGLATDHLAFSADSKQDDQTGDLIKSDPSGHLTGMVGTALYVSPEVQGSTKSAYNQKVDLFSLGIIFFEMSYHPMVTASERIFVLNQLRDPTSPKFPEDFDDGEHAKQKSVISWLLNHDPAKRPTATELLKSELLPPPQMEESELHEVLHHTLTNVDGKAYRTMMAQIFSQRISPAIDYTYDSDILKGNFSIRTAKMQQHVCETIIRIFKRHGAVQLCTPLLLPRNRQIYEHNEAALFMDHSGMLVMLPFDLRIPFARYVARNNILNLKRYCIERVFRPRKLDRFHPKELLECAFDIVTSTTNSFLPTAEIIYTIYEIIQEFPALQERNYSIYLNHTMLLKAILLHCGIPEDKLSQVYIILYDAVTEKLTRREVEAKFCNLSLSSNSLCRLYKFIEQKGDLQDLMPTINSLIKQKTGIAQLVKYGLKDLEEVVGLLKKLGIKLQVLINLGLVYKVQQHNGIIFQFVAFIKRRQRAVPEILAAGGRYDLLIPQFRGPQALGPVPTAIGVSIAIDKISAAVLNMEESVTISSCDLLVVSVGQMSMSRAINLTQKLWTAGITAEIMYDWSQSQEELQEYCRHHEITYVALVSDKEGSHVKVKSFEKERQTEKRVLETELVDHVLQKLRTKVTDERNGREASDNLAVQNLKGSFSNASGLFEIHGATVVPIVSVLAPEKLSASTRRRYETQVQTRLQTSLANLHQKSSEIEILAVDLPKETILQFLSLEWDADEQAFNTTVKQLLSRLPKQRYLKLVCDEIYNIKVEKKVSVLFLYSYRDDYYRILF
Method in brief: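 Read-out: AlphaScreen SureFire phospho-eIF2α (Ser51) signal in U2OS lysates. Cells get 4-fold compound dilutions (top 40 μM final) plus 10 μM borrelidin, 1 h, 37 °C. Percent inhibition is relative to borrelidin-alone controls.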

[2] = compounds of Formula II, 4 nM GCN2 kinase
[3] = Enzyme activity for compounds of Formula IV, Ki(app), 25° C.

Chain of GCN2 kinase (Q9P2K8 whole entry): as above

| pKi (GCN2 kinase; [2]) | pIC50 ([1]; compounds of Formula II) | pKi (GCN2 kinase; [3]) | pIC50 ([1]; compounds of Formula IV) | pIC50 (GCN2 kinase; [2]) | SMILES |
| --- | --- | --- | --- | --- | --- |
| > 8.00 | 5.30 to 6.30 | – | – | – | C[C@H]1CN(c2cc(-c3cnc4ccc(C(F)F)nn34)ncc2F)C[C@@H](CNS(C)(=O)=O)C1(F)F [II-270, N-[[(3S,5S)-1-[2-[6-(Difluoromethyl)imidazo[1,2-b]pyridazin-3-yl]-5-fluoro-4-pyridyl]-4,4-difluoro-5-methyl-3-piperidyl]methyl]methanesulfonamide] |
| > 8.00 | 5.30 to 6.30 | – | – | – | CS(C)(=O)=NC1CC(C(F)(F)F)CN(c2cc(-c3cnc4ccc(C(F)F)nn34)ncn2)C1 (centres unmarked) [II-695, ((1-(6-(6-(Difluoromethyl)imidazo[1,2-b]pyridazin-3-yl)pyrimidin-4-yl)-5-(trifluoromethyl)piperidin-3-yl)imino)dimethyl-λ^6-sulfanone] |
| 6.00 to 8.00 | 5.30 to 6.30 | – | – | – | NS(=O)(=O)CCC1CCCN(c2cc(-c3cnc4ccc(C(F)F)nn34)ncn2)C1 (centres unmarked) [II-317, 2-(1-(6-(6-(Difluoromethyl)imidazo[12-b]pyridazin-3-yl)pyrimidin-4-yl)piperidin-3-yl)ethane-1-sulfonamide] |
| – | – | 6.00 to 7.00 | < 5.30 | – | FC(F)c1cn2c(-c3nccc(N4CCCC(c5cccnc5)C4)n3)cnc2cn1 (centres unmarked) [IV-52, 6-(Difluoromethyl)-3-(4-(3-(pyridin-3-yl)piperidin-1-yl)pyrimidin-2-yl)imidazo[1,2-a]pyrazine] |
| – | – | 6.00 to 7.00 | < 5.30 | – | CS(=O)(=O)N1CCC2(CCN(c3ccnc(-c4cnc5cnc(C(F)F)cn45)n3)C2)CC1 [IV-145, 2-(2-(6-(Difluoromethyl)imidazo[1,2-a]pyrazin-3-yl)pyrimidin-4-yl)-8-(methylsulfonyl)-2,8-diazaspiro[4.5]decane] |
| – | – | > 8.00 | 5.30 to 6.30 | – | Fc1n[nH]cc1C1CCN(c2ccnc(-c3cnc4cnc(C(F)(F)F)cn34)n2)C1 (single isomer, unassigned) [IV-563, 3-(4-(3-(3-Fluoro-1H-pyrazol-4-yl)pyrrolidin-1-yl)pyrimidin-2-yl)-6-(trifluoromethyl)imidazo[1,2-a]pyrazine] |
| – | > 6.30 | – | – | 6.00 to 8.00 | Cc1[nH]ncc1[C@@H]1CN(c2cc(-c3cnc4ccc(C(F)(F)F)nn34)ncn2)C[C@H](C)O1 [II-767, (2S,6R)-2-methyl-6-(5-methyl-1H-pyrazol-4-yl)-4-(6-(6-(trifluoromethyl)imidazo[1,2-b]pyridazin-3-yl)pyrimidin-4-yl)morpholine] |
| 6.00 to 8.00 | < 5.30 | – | – | – | FC(F)c1ccc2ncc(-c3cc(C4CCOCC4)ncn3)n2n1 [II-358, 6-(Difluoromethyl)-3-(6-tetrahydropyran-4-ylpyrimidin-4-yl)imidazo[1,2-b]pyridazine] |
| – | – | 6.00 to 7.00 | < 5.30 | – | CC1CCCN(c2ccnc(-c3cnc4cnc(C(F)F)cn34)n2)C1C (centres unmarked) [IV-134, 6-(Difluoromethyl)-3-(4-(2,3-dimethylpiperidin-1-yl)pyrimidin-2-yl)imidazo[1,2-a]pyrazine] |
| – | – | 7.00 to 8.00 | 5.30 to 6.30 | – | NC(=O)c1cn2c(-c3cccc(-c4cccc5[nH]ccc45)n3)cnc2cn1 [IV-225, 3-(6-(1H-Indol-4-yl)pyridin-2-yl)imidazo[1,2-a]pyrazine-6-carboxamide] |
| 6.00 to 8.00 | 5.30 to 6.30 | – | – | – | CC1CN(c2cc(-c3cnc4ccc(C(F)F)nn34)ncn2)C(C)C(c2cn[nH]c2)N1 (single isomer, unassigned) [II-652, 6-(Difluoromethyl)-3-(6-(2,5-dimethyl-3-(1H-pyrazol-4-yl)piperazin-1-yl)pyrimidin-4-yl)imidazo[1,2-b]pyridazine] |
| – | – | 6.00 to 7.00 | < 5.30 | – | NCS(=O)(=O)c1cccc(-c2ccnc(-c3cnc4cnc(C(F)F)cn34)n2)c1 [IV-148, ((3-(2-(6-(Difluoromethyl)imidazo[1,2-a]pyrazin-3-yl)pyrimidin-4-yl)phenyl)sulfonyl)methanamine] |
| – | – | 6.00 to 7.00 | < 5.30 | – | Oc1cccc(-c2ccnc(-c3cnc4cnc(C(F)F)cn34)n2)c1 [IV-161, 3-(2-(6-(Difluoromethyl)imidazo[1,2-a]pyrazin-3-yl)pyrimidin-4-yl)phenol] |
| – | – | 6.00 to 7.00 | < 5.30 | – | NC1CCCN(c2ccnc(-c3cnc4cnc(C(F)F)cn34)n2)CC1 (centres unmarked) [IV-118, 1-(2-(6-(Difluoromethyl)imidazo[1,2-a]pyrazin-3-yl)pyrimidin-4-yl)azepan-4-amine] |
| 6.00 to 8.00 | 5.30 to 6.30 | – | – | – | OCCC1CCCN(c2cc(-c3cnc4ccc(C(F)F)nn34)ncn2)C1 (centres unmarked) [II-497, 2-(1-(6-(6-(Difluoromethyl)imidazo[1,2-b]pyridazin-3-yl)pyrimidin-4-yl)piperidin-3-yl)ethan-1-ol] |
| 6.00 to 8.00 | < 5.30 | – | – | – | N=S1(=O)CCN(c2cc(-c3cnc4ccc(C(F)F)nn34)ncn2)CC1 [II-676, 4-[6-[6-(Difluoromethyl)imidazo[1,2-b]pyridazin-3-yl]pyrimidin-4-yl]-1-imino-1,4-thiazinane 1-oxide] |

| pKi (GCN2 kinase; [2]) | pIC50 ([1]; compounds of Formula II) | pKi (GCN2 kinase; [3]) | pIC50 ([1]; compounds of Formula IV) | pIC50 (GCN2 kinase; [2]) | SMILES |
| --- | --- | --- | --- | --- | --- |
| > 8.00 | > 6.30 | – | – | – | CC1C(CS(N)(=O)=O)CCCN1c1cc(-c2cnc3ccc(C(F)F)nn23)ncn1 (centres unmarked) [II-424, (1-(6-(6-(Difluoromethyl)imidazo[1,2-b]pyridazin-3-yl)pyrimidin-4-yl)-2-methylpiperidin-3-yl)methanesulfonamide] |
| > 8.00 | > 6.30 | – | – | – | CS(=O)(=O)NC[C@@H]1CN(c2cc(-c3cnc4ccc(C(F)F)nn34)ccn2)CCO1 [II-121, N-[[(2S)-4-[4-[6-(Difluoromethyl)imidazo[1,2-b]pyridazin-3-yl]-2-pyridyl]morpholin-2-yl]methyl]methanesulfonamide] |
| – | – | 6.00 to 7.00 | < 5.30 | – | C[C@H]1[C@@H](C(=O)O)CCCN1c1ccnc(-c2cnc3cnc(C(F)F)cn23)n1 (racemic) [IV-110, Cis-1-(2-(6-(Difluoromethyl)imidazo[1,2-a]pyrazin-3-yl)pyrimidin-4-yl)-2-methylpiperidine-3-carboxylic acid] |
| 6.00 to 8.00 | > 6.30 | – | – | – | CNS(=O)(=O)N[C@H]1CCCN(c2cc(-c3cnc4ccc(C(F)F)nn34)ncn2)C1 [II-422, (S)-1-(1-(6-(6-(Difluoromethyl)imidazo[1,2-b]pyridazin-3-yl)pyrimidin-4-yl)piperidin-3-yl)-3-methylsulfuric diamide] |
| 6.00 to 8.00 | < 5.30 | – | – | – | CC1C(CNS(C)(=O)=O)CCN1c1cc(-c2cnc3ccc(C(F)F)nn23)ncn1 (centres unmarked) [II-244, N-((1-(6-(6-(Difluoromethyl)imidazo[1,2-b]pyridazin-3-yl)pyrimidin-4-yl)-2-methylpyrrolidin-3-yl)methyl)methanesulfonamide] |
| < 6.00 | < 5.30 | – | – | – | CN1C(=O)CN(c2cc(-c3cnc4ccc(C(F)F)nn34)ncn2)C[C@H]1CNS(C)(=O)=O [II-7, (S)—N-((4-(6-(6-(Difluoromethyl)imidazo[1,2-b]pyridazin-3-yl)pyrimidin-4-yl)-1-methyl-6-oxopiperazin-2-yl)methyl)methanesulfonamide] |
| – | – | > 8.00 | 5.30 to 6.30 | – | FC(F)(F)c1cn2c(-c3nccc(N4CCOC(c5cn[nH]c5)C4)n3)cnc2cn1 (single isomer, unassigned) [IV-8, 2-(1H-Pyrazol-4-yl)-4-(2-(6-(trifluoromethyl)imidazo[1,2-a]pyrazin-3-yl)pyrimidin-4-yl)morpholine] |
| – | – | 6.00 to 7.00 | < 5.30 | – | CC(=O)N1CCN(c2ccnc(-c3cnc4cnc(CO)cn34)n2)CC1 [IV-26, 1-(4-(2-(6-(Hydroxymethyl)imidazo[1,2-a]pyrazin-3-yl)pyrimidin-4-yl)piperazin-1-yl)ethan-1-one] |
| – | – | 6.00 to 7.00 | < 5.30 | – | NC(=O)C1CCN(c2ccnc(-c3cnc4cnc(C(F)F)cn34)n2)C1 (centres unmarked) [IV-63, 1-(2-(6-(Difluoromethyl)imidazo[1,2-a]pyrazin-3-yl)pyrimidin-4-yl)pyrrolidine-3-carboxamide] |
| – | – | 7.00 to 8.00 | 5.30 to 6.30 | – | C[C@@H]1CC[C@H](C(N)=O)CN1c1ccnc(-c2cnc3cnc(C(F)F)cn23)n1 (racemic) [IV-106, Cis-1-(2-(6-(Difluoromethyl)imidazo[1,2-a]pyrazin-3-yl)pyrimidin-4-yl)-6-methylpiperidine-3 carboxamide] |
| 6.00 to 8.00 | 5.30 to 6.30 | – | – | – | NS(=O)(=O)CC1CCCN(c2cc(-c3cnc4ccc(C(F)F)nn34)ccn2)C1 (centres unmarked) [II-144, (1-(4-(6-(Difluoromethyl)imidazo[1,2-b]pyridazin-3-yl)pyridin-2-yl)piperidin-3-yl)methanesulfonamide] |
| – | – | > 8.00 | 5.30 to 6.30 | – | FC(F)OC1CC(c2cn[nH]c2)CN(c2ccnc(-c3cnc4cnc(C(F)(F)F)cn34)n2)C1 (centres unmarked) [IV-466, 3-(4-(3-(Difluoromethoxy)-5-(1H-pyrazol-4-yl)piperidin-1-yl)pyrimidin-2-yl)-6-(trifluoromethyl)imidazo[1,2-a]pyrazine] |
| – | – | 7.00 to 8.00 | 5.30 to 6.30 | – | CC(C)c1nc(C2=CCCN(c3ccnc(-c4cnc5cnc(Br)cn45)n3)C2)c[nH]1 [IV-385, 6-Bromo-3-(4-(5-(2-isopropyl-1H-imidazol-4-yl)-3,6-dihydropyridin-1(2H)-yl)pyrimidin-2-yl)imidazo[1,2-a]pyrazine] |
| 6.00 to 8.00 | 5.30 to 6.30 | – | – | – | CC1C(CS(C)(=O)=O)OCCN1c1cc(-c2cnc3ccc(C(F)F)nn23)ncn1 (centres unmarked) [II-426, 4-(6-(6-(Difluoromethyl)imidazo[1,2-b]pyridazin-3-yl)pyrimidin-4-yl)-3-methyl-2-((methylsulfonyl)methyl)morpholine] |
| 6.00 to 8.00 | < 5.30 | – | – | – | O=S1(=O)CCN(c2cc(-c3cnc4ccc(C(F)F)nn34)ccn2)CC1 [II-77, 4-(4-(6-(Difluoromethyl)imidazo[1,2-b]pyridazin-3-yl)pyridin-2-yl)thiomorpholine 1,1-dioxide] |
